ChEMBL document CHEMBL5260833, “An overview of quinazolines: Pharmacological significance and recent developments” (Eur J Med Chem, 2018)

Tests used:
[1] = system: Oryctolagus cuniculus; experiment: Antihypertensive activity in po dosed rabbit assessed as decrease in 30mmhg of systolic blood pressure measured after 4 to 6 hrs; format: functional; conditions: time 4-6 hrs
[2] = system: Rattus norvegicus; experiment: Antiinflammatory activity in rat at assessed as reduction in paw edema at 200 mg/kg relative to control; format: functional
[3] = system: Human immunodeficiency virus 1; experiment: Antiviral activity against HIV-1 infected in human MT4 cells assessed as protection against virus-induced cytotoxicity relative to control; format: functional; parameters: concentration or dose not given beside the values
[4] = system: Human immunodeficiency virus 2; experiment: Antiviral activity against HIV-2 infected in human MT4 cells assessed as protection against virus-induced cytotoxicity relative to control; format: functional; parameters: concentration or dose not given beside the values
[5] = target: 5-hydroxytryptamine receptor 2A (Homo sapiens, UniProt P28223); experiment: Inhibition of 5-HT2A (unknown origin) assessed as inhibition constant
[6] = system: WIL2; experiment: Anticancer activity against human WIL2 cell assessed as cell growth inhibition measured after 120 hrs; format: functional, cell-based; conditions: WIL2, 120 h
[7] = system: CCRF-CEM; experiment: Anticancer activity against human CCRF-CEM cell assessed as cell growth inhibition measured after 120 hrs; format: functional, cell-based
[8] = Antiviral activity against Gomphrena mosaic virus relative to control; format: functional, Gomphrena mosiac virus; parameters: concentration or dose not given beside the values
[9] = system: Mus musculus; experiment: Analgesic activity in […] albino mouse at 20 mg/kg, po measured after 2 hrs by Tail-Flick technique relative to control; format: functional
[10] = target: Prostaglandin G/H synthase 2 (Homo sapiens) (UniProt P35354); experiment: Inhibition of COXII (unknown origin) relative to control; conditions: concentration not given here
[11] = system: Mus musculus; experiment: Analgesic activity in mouse at 100 mg/kg, ip measured after 30 mins relative to control; format: functional; conditions: 0.5 h
[12] = species on record: Oryctolagus cuniculus; experiment: Antihypertensive activity in rabbit aorta assessed as vasodilation; format: functional
[13] = system: Mus musculus; experiment: Sedative activity in mouse assessed as sleeping time at 300 mg/kg, ip; format: functional
[14] = system: Rattus norvegicus; experiment: Antiinflammatory activity in carrageenan induced rat at assessed as reduction in paw edema 50 mg/kg, ip measured after […] relative to control; format: functional; parameters: scale not given: the % may be the effect or the level left
[15] = system: Canis familiaris; experiment: Antiplatelet activity in iv dosed dog assessed as platelet aggregation; format: functional, organism-based; conditions: Canis lupus familiaris
[16] = system: SR; experiment: Anticancer activity against human SR cell assessed as cell growth inhibition measured after 24 hrs by SRB assay; format: functional
[17] = system: UO-31; experiment: Anticancer activity against human UO-31 cell assessed as cell growth inhibition measured after 24 hrs by SRB assay; format: functional
[18] = system: RXF 393; experiment: Anticancer activity against human RXF 393 cell assessed as cell growth inhibition measured after 24 hrs by SRB assay; format: functional
[19] = Anticancer activity against human CNS cell assessed as cell growth inhibition measured after 24 hrs by SRB assay; format: functional
[20] = system: K562; experiment: Anticancer activity against human K562 cell assessed as cell growth inhibition measured after 24 hrs by SRB assay; format: functional
[21] = system: A549; experiment: Anticancer activity against human A549 cell assessed as cell growth inhibition measured after 24 hrs by SRB assay; format: functional
[22] = system: MOLT-4; experiment: Anticancer activity against human MOLT-4 cell assessed as cell growth inhibition measured after 24 hrs by SRB assay; format: functional
[23] = system: Mus musculus; experiment: Analgesic activity in acetic acid peritonitis induced mouse assessed as reduction in writhing at 10 mg/kg, po measured after 1 hrs by writhing test relative to control; format: functional
[24] = system: Mus musculus; experiment: Analgesic activity in phenylbenzoquinone induced mouse assessed as reduction in writhing at 10 mg/kg, po measured after 1 hrs by writhing test relative to control; format: functional
[25] = species on record: Mus musculus; experiment: Sedative hypnotic activity in mouse; format: functional; parameters: concentration or dose not given beside the values
[26] = Therapeutic index, ratio of IC50 for antiviral activity against HIV infected in human H9 cells to EC50 for antiviral activity against HIV infected in human H9 cells; format: toxicity, cell-based; conditions: human immunodeficiency virus, H9 cells infected with HIV; read-out: Ratio IC50/EC50
[27] = system: Human immunodeficiency virus; experiment: Antiviral activity against HIV infected in human H9 cells; format: functional, organism-based; conditions: Human immunodeficiency virus 1, H9
[28] = Inhibition of HCV RNA IRES IIa by FRET assay; parameters: species or system Hepacivirus hominis
[29] = system: Mus musculus; experiment: Anticonvulsant activity in ip dosed mouse assessed as reduction in clonus phase; format: functional
[30] = system: Mus musculus; experiment: Sedative activity in mouse assessed as sleeping time at 30 mg/kg, ip; format: functional
[31] = system: Mus musculus; experiment: Sedative activity in mouse assessed as sleeping time at 100 mg/kg, ip; format: functional
[32] = system: Mus musculus; experiment: Anticonvulsant activity in ip dosed mouse assessed as reduction in tonus phase; format: functional

Chain of 5-hydroxytryptamine receptor 2A (P28223 whole entry): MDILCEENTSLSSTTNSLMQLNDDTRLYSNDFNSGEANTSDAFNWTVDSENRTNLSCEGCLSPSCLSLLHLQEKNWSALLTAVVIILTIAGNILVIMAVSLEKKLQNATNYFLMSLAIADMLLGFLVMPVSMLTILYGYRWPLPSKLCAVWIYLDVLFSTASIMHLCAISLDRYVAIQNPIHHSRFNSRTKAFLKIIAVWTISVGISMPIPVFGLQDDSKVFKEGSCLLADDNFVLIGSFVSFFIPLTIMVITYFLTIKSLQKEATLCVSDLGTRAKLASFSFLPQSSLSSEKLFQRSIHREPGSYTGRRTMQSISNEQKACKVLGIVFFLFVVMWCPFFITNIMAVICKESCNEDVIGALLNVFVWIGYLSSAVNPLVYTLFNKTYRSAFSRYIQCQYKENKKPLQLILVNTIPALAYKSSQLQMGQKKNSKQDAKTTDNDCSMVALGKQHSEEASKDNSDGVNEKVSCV
Chain of Prostaglandin G/H synthase 2 (Homo sapiens) (P35354 whole entry): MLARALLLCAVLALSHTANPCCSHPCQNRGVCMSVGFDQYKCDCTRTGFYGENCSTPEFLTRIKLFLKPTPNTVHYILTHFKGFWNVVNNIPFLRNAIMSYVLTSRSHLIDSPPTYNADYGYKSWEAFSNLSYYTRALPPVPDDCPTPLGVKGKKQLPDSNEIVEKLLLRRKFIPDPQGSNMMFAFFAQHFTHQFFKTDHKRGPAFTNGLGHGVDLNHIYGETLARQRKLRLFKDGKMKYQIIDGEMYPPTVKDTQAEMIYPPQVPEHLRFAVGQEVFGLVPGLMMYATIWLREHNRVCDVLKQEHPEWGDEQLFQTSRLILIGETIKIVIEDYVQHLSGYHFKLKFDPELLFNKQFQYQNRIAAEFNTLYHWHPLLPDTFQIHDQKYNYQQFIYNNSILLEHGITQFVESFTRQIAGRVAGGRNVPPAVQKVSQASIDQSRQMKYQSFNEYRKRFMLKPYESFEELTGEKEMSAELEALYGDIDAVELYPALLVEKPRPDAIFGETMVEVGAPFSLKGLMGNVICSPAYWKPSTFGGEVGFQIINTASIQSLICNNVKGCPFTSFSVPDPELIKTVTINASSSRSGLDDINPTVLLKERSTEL

CCNC(=O)OCc1nc2cc(C)c(C(=O)OCC)c(C)c2c(=O)n1-c1ccccc1Cl
ED30 [1]: 0.35 mg/kg

O=C(O)c1ccc(Cl)cc1-n1c(/C=C/c2ccc([N+](=O)[O-])cc2)nc2ccccc2c1=O
inhibition in vivo at 200 mg/kg [2]: 62.2%

Cc1nc2ccccc2c(=O)n1NCN1CCOCC1
Activity [3]: 21% | Activity [4]: 25%

O=C(c1ccc(F)cc1)C1CCN(CCn2cnc3c(c2=O)CCCC3)CC1
Ki [5]: 0.00759 µM

Nc1nc(O)c2c(Cl)c(CNc3ccc(C(=O)NC(CCC(=O)O)C(=O)O)cc3)ccc2n1 (stereo unspecified)
IC50 [6]: 1.8 µM | IC50 [7]: 1.8 µM

COc1ccc(N/N=C(C)/N=N/n2cnc3ccccc3c2=O)cc1
Activity [8]: 15%

Clc1cccc(Cl)c1NC1=NCCN1 [CLONIDINE]
ED30 [1]: 0.065 mg/kg

COc1ccccc1C1SCC(=O)N1NCC(=O)Cc1nc2ccccc2c(=O)n1-c1c(C)[nH]c2ccccc12 (stereo unspecified)
Activity [9]: 80% | inhibition [10]: 90% | Activity [11]: 80%

COc1ccc(/C=C/c2nc3ccccc3c(=O)n2-c2cc(C(=O)O)ccc2Cl)cc1
inhibition in vivo at 200 mg/kg [2]: 62.2%

COC(=O)CCC(NC(=O)c1ccc(NCc2ccc3nc(C)[nH]c(=O)c3c2Cl)s1)C(=O)OC (stereo unspecified)
IC50 [6]: 1.8 µM | IC50 [7]: 2.1 µM

O=C(O)c1cc(Br)ccc1-n1c(/C=C/c2ccc([N+](=O)[O-])cc2)nc2ccccc2c1=O
inhibition in vivo at 200 mg/kg [2]: 62.2%

CC(=O)OC1C([N+](=O)[O-])c2ccc(Cl)cc2C(=O)N1[N+](=O)[O-] (stereo unspecified)
pD2 [12]: 5.4

CC(/N=N/n1cnc2ccccc2c1=O)=N\Nc1ccc(Cl)cc1
Activity [8]: 15%

O=c1c2ccccc2nc(-c2cccnc2)n1-c1ccccc1F
Time [13]: 395.5 min

Cc1nc2ccccc2c(=O)n1NCN(C)C
Activity [3]: 21% | Activity [4]: 25%

O=c1c2ccccc2nc(-c2ccccc2)n1-c1nc2ccccc2s1
Activity [14]: 30.3%

CC(=O)OC1C([N+](=O)[O-])c2ccccc2C(=O)N1[N+](=O)[O-] (stereo unspecified)
pD2 [12]: 5.36

CCCCS(=O)(=O)NC(CCCc1ccc2c(c1)c(=O)n(CCC1CCNCC1)c(=O)n2Cc1ccccc1)C(=O)O (stereo unspecified)
IC50 [15]: 0.21 µM

O=c1c2ccccc2nc(S)n1NCNc1ccccn1
Activity [3]: 25% | Activity [4]: 27%

O=c1[nH]cc(F)c(=O)[nH]1 [FLUOROURACIL]
GI50 [16]: 1.62 µM | GI50 [17]: 6.76 µM | GI50 [18]: 55 µM | GI50 [19]: 42.7 µM | GI50 [20]: 0.407 µM | GI50 [21]: 1.05 µM | GI50 [22]: 17 µM

O=c1c2ccccc2nc(-c2ccncc2)n1CCCN1CCOCC1
Time [13]: 7.1 min

CC(=O)Oc1ccccc1C(=O)O [ASPIRIN]
inhibition in vivo at 10 mg/kg [23]: 60% | inhibition in vivo at 10 mg/kg [24]: 20%

O=c1c2ccccc2nc(S)n1NCNc1ccccc1
Activity [3]: 25% | Activity [4]: 27%

Cc1cccc(-n2c(=O)c3ccccc3n3c(CCl)nnc23)c1
Activity [25]: 4%

COc1cc2nc(-c3ccccc3F)nc(O)c2cc1OC
selectivity ratio [26]: 9.17 | EC50 [27]: 10.9 µM | IC50 [27]: 100 µM

Cc1nc2c(c(=O)n1CCN1CCC(C(=O)c3ccc(F)cc3)CC1)CCCC2
Ki [5]: 0.00263 µM

NC1=NCc2ccccc2C(=O)N1
EC50 [28]: 650 µM

Oc1nc(-c2ccc(Cl)cc2)nc2cc3c(cc12)OCO3
ED50 [29]: 32.7 µmol/kg

O=c1c2ccccc2nc(-c2ccncc2)n1-c1ccccc1F
Time [30]: 3.5 min | Time [31]: 111.2 min | Time [13]: 699.7 min

Oc1nc(-c2ccc(F)cc2)nc2cc3c(cc12)OCO3
ED50 [32]: 17.7 µmol/kg

Nc1ccc(-c2nc(S)c3cc4c(cc3n2)OCO4)cc1
ED50 [32]: 36.6 µmol/kg | ED50 [29]: 68.3 µmol/kg

O=C(O)c1ccc(Cl)cc1-n1c(/C=C/c2ccc(F)cc2)nc2ccccc2c1=O
inhibition in vivo at 200 mg/kg [2]: 62.2%

COc1cc2nc(-c3ccc4ccccc4c3)nc(O)c2cc1OC
selectivity ratio [26]: 13.2 | EC50 [27]: 7.59 µM | IC50 [27]: 100 µM

O=C(O)c1cc(Br)ccc1-n1c(/C=C/c2ccc(O)cc2)nc2ccccc2c1=O
inhibition in vivo at 200 mg/kg [2]: 62.2%
